Measurements published in US20060106028A1, “Polycyclic aromatics and derivatives thereof and processes for their preparation” (priority 2004, published 2006).
In brackets after ≈: the same amount, converted by molar mass.

Columns and labels:
DU145 (Prostate) = experiment: In vitro cytotoxic activity, 36 tumor cell lines panel; type: cell-based; conditions: Homo sapiens, DU-145, 96 hours
Procedure: (§1) Culture conditions and activity evaluations of Compound 1 against 36 cancer cell lines were done as described below. Results were expressed as the concentration of drug which inhibits 50% of the cell growth (IC50, calculated using the formula: [Ti/C]×100=−50).
(§2) The compound was dissolved at 10 mM in DMSO. Dilution in vehicle to concentrations of 30, 10, 3, 1 and 0.3 μM were prepared immediately before assays. Depending on the cell line's growth characteristics, 4000-10000 cells were plated in two 96-wells pates (day 0) and incubated for 16 hours. The following day, propidium iodide was added to one of the two plates. Test compound was added to the second plate, as well as vehicle control, and cells further incubated for 96 hours. The compound was tested at each concentration and in triplicates. The equivalent cell number was determined after adding propidium iodide by measuring the signal by fluorescence (Ti for test article, C for control).

276L (Melanoma) = experiment: as above; type: cell-based; conditions: 96 hours
Procedure: as §1, §2

1121L (Lung) = experiment: as above; type: cell-based; conditions: 96 hours
Procedure: as §1, §2

H460 (Lung) = experiment: as above; type: cell-based; conditions: Homo sapiens, NCI-H460, 96 hours
Procedure: as §1, §2

520L (Melanoma) = experiment: as above; type: cell-based; conditions: 96 hours
Procedure: as §1, §2

PANC1 (Pancreas) = experiment: as above; type: cell-based; conditions: Homo sapiens, PANC-1, 96 hours
Procedure: as §1, §2

1138L (Uterus) = experiment: as above; type: cell-based; conditions: 96 hours
Procedure: as §1, §2

462NL (Melanoma) = experiment: as above; type: cell-based; conditions: 96 hours
Procedure: as §1, §2

HT29 (Colon) = experiment: as above; type: cell-based; conditions: Homo sapiens, HT-29, 96 hours
Procedure: as §1, §2

T24 (Bladder) = experiment: as above; type: cell-based; conditions: 96 hours
Procedure: as §1, §2

514L (Melanoma) = experiment: as above; type: cell-based; conditions: 96 hours
Procedure: as §1, §2

629L (Lung) = experiment: as above; type: cell-based; conditions: 96 hours
Procedure: as §1, §2

1619L (Ovarian) = experiment: as above; type: cell-based; conditions: 96 hours
Procedure: as §1, §2

529L (Lung) = experiment: as above; type: cell-based; conditions: 96 hours
Procedure: as §1, §2

899L (Ovarian) = experiment: as above; type: cell-based; conditions: 96 hours
Procedure: as §1, §2

LNCAP (Prostate) = experiment: as above; type: cell-based; conditions: Homo sapiens, 96 hours
Procedure: as §1, §2

1781L (Renal) = experiment: as above; type: cell-based; conditions: 96 hours
Procedure: as §1, §2

251L (Gastric) = experiment: as above; type: cell-based; conditions: 96 hours
Procedure: as §1, §2

[1] = tested on: HT-29 (colorectal carcinoma); experiment: In vitro tumor growth inhibition (GI50, propidium iodide); type: cell-based; conditions: Homo sapiens, 96 hrs
[2] = tested on: Staphylococcus aureus (ATCC™ 6538P); experiment: Antibacterial activity, MIC (NCCLS M7-A5); type: cell-based; conditions: MH medium, 35° C., 16 to 20 hours
[3] = In vivo pharmacokinetic profile (plasma levels); parameters: species or system CD-1 mice; conditions: CD-1, mouse, 25 mg/kg single dose, CD1 female mice
Procedure: Pharmacokinetic profile of Compound 1 was determined in CD-1 mice (FIG. 1). CD1 female mice (6 weeks of age) received a single intravenous or intraperitoneal dose of Compound 1 (25 mg/kg; 5 mL/kg) in […]/4.5% Glycocholate/5% EtOH formulation. Blood was collected into EDTA-containing tubes by cardiac puncture. Quantification of Compound 1 plasma levels was done by high performance liquid chromatographic-mass spectrometric method. Cmax values represent the maximum observed plasma concentration and AUC represents the area under the plasma concentration versus time curve (Table 6).

[4] = tested on: Staphylococcus aureus MRS3 (ATCC™ 700699); experiment: Antibacterial activity, MIC (NCCLS M7-A5); type: cell-based; conditions: MH medium, 35° C., 16 to 20 hours

With `CCC(C)c1cc2c(=O)c3ccc4c(OC)c5c(=O)c6c(O)ccc(O)c6c(=O)c5c(O)c4c3c(=O)c2c(=O)n1CC(=O)N1CC(C(=O)O)NC(=O)C1C` (stereo not shown) [Compound 1] the IC50 (DU145 (Prostate)) was < 0.41 µM, the IC50 (276L (Melanoma)) was 8.26 µM and the IC50 (1121L (Lung)) was 0.63 µM. It also gave an IC50 (H460 (Lung)) of 6.08 µM, an IC50 (520L (Melanoma)) of 7.25 µM and an IC50 (PANC1 (Pancreas)) of 14.4 µM. The IC50 (1138L (Uterus)) was < 0.41 µM, the IC50 (462NL (Melanoma)) was 24.7 µM and the IC50 (HT29 (Colon)) was 5.77 µM. For the same molecule, the IC50 (T24 (Bladder)) was 5.15 µM, the IC50 (514L (Melanoma)) was 10.7 µM and the IC50 (629L (Lung)) was 11.9 µM. It also gave an IC50 (1619L (Ovarian)) of 19.6 µM, an IC50 (529L (Lung)) of 2.2 µM and an IC50 (899L (Ovarian)) of 34.9 µM. The IC50 (LNCAP (Prostate)) was 0.72 µM, the IC50 (1781L (Renal)) was 7.54 µM and the IC50 (251L (Gastric)) was 0.72 µM. The GI50 [1] was 8.85 µM, the MIC [2] was 0.016 µg/mL (≈ 0.0217 µM) and the AUC ([3]; ip) was 649 µg·h/mL. It also gave a Cmax ([3]; ip) of 111 µg/mL, an AUC ([3]; iv) of 1180 µg·h/mL and a Cmax ([3]; iv) of 227 µg/mL. For the same molecule, the MIC [4] was 0.016 µg/mL (≈ 0.0217 µM).
